Results from patent publication US5447862A, “Pectin lyase genes of aspergillus niger” (Ciba-Geigy Corporation, priority 1987, dated 1995).

Test system: Aspergillus niger pectin lyase B (PLB), purified from pelB transformant B13, SEQ ID NO: 6
Conditions: EDTA 3 mM final concentration in the reaction mixture; enzyme reactivated by excess of Ca2+ ions
Method: Both highly esterified pectin (d.e. 94%) as well as pectins with lower degree of esterification like Brown Ribbon apple pectin (d.e. 72.8%; Obipektin AG Bischoffzell) can be used as substrate.
These values are determined according to the procedure of van Houdenhoven (ref. 18) using a Mc Ilvaine buffer of pH 8.0 (μ=0.5).

O=C([O-])CN(CCN(CC(=O)O)CC(=O)O)CC(=O)[O-].[Na+].[Na+] [EDTA, ethylenediaminetetraacetic acid disodium salt]
inhibition of the pectin lyase reaction by EDTA: inhibited
